From US12220419B2, “BCL-2 inhibitors” (Newave Pharmaceutical Inc., priority 2018, dated 2025)
Like-named read-outs stand apart in the source and are kept apart here.

Columns and labels:
BCL-2 = BCL-2 (Homo sapiens (Human), UniProt P10415); test: BCL-2 competition binding (fluorescence polarization) assay; conditions: read-out: BCL2 IC50
Protocol: Biological Example 1: BCL-2 Competition Binding (Fluorescence Polarization) Assay
The fluorescence-labeled 23 amino acid peptide BH3 was purchased from CalBiochem ([…]). […] This binding assay was performed in 96-well plate and with each assay contained 15 and 30 nM of labeled peptide and purified BCL-2 protein (purchased from R&D Systems, Inc). The assay buffer contained 20 mM Hepes (pH 7.0), 50 mM KCl, 5 mM MgCl2, 20 mM Na2MoO4, 0.1 mg/ml Bovine Gamma Globulin and 0.01% NP40. Compounds were diluted in DMSO and added to the final assay with concentration range from 20 μM to 2 nM. The polarization degree (mP) value was determined by BioTek Synergy II with background subtraction after 3 hours of incubation at room temperature. IC50 was calculated using Prism software with sigmoidal dose-response curve fitting. ABT-737 was used as reference compound. Such assays, carried out with a range of doses of test compounds, allowed the determination of an approximate IC50 value.

[1] = test system: BCL-2-dependent acute lymphoblastic leukemia (ALL) cell line RS4;11; test: In vitro anti-proliferation assay (ATPlite luminescence) in RS4;11; assay type: cell-based; conditions: RS4;11 cells, about 72 hours, medium with 5% FBS or 10% normal human serum
Protocol: Cell antiproliferation was assayed by PerkinElmer ATPlite™ Luminescence Assay System. Briefly, the various test cancer cell lines were plated at a density of about 1×10^4 cells per well in Costar 96-well plates, and were incubated with different concentrations of compounds for about 72 hours in medium supplemented with 5% FBS or 10% normal human serum (NHS). One lyophilized substrate solution vial was then reconstituted by adding 5 mL of substrate buffer solution, and was agitated gently until the solution was homogeneous. About 50 μL of mammalian cell lysis solution was added to 100 μL of cell suspension per well of a microplate, and the plate was shaken for about five minutes in an orbital shaker at 700 rpm. This procedure was used to lyse the cells and to stabilize the ATP. Next, 50 μL substrate solution was added to the wells and microplate was shaken for five minutes in an orbital shaker at 700 rpm. Finally, the luminescence was measured by a PerkinElmer TopCount® Microplate Scintillation Counter. Such assays, carried out with a range of doses of test compounds, allowed the determination of the cellular anti-antiproliferative IC50 of the compounds of the present invention.

[2] = fluorescein-labeled BH3 peptide 15 nM, purified BCL-2 protein 30 nM, 3 hours incubation at room temperature

Sequence of BCL-2 (P10415 whole entry): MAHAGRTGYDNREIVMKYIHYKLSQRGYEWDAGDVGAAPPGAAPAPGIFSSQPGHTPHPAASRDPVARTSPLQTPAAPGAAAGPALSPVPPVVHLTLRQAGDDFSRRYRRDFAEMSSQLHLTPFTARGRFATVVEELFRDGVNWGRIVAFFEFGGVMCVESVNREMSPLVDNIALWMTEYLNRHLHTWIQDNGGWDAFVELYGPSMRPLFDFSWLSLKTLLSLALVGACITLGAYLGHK

Row | SMILES | IC50 (BCL-2; [2]) [nM] | IC50 [1] [nM] | IC50 (BCL-2) [nM]
1 | CC1(C)CCC(CN2CCN(c3ccc(C(=O)NS(=O)(=O)c4ccc(NCCOCCOCCOCCNc5cccc6c5C(=O)N(C5CCC(=O)NC5=O)C6=O)c([N+](=O)[O-])c4)c(N4CCCOc5nc6[nH]ccc6cc54)c3)CC2)=C(c2ccc(Cl)cc2)C1 (centres unmarked) [Example 53, 4-(4-[[2-(4-chlorophenyl)-4,4-dimethylcyclohex-1-en-1-yl]methyl]piperazin-1-yl)-N-[4-(12-[[2-(2,6-dioxopiperidin-3-yl)-1,3-dioxoisoindol-4-yl]amino]-4,7,10-trioxa-1-azadodecan-1-yl)-3-nitrobenzenesulfonyl]-2-[14-oxa-2,4,10-triazatricyclo[7.5.0.0^[3,7]]tetradeca-1(9),2,5,7-tetraen-10-yl]benzamide] | 1.2 | 79 | –
2 | Cc1ncsc1-c1ccc(CNC(=O)[C@@H]2C[C@@H](O)CN2C(=O)[C@@H](NC(=O)CCOCCOCCOCCN2CCN(CCNc3ccc(S(=O)(=O)NC(=O)c4ccc(N5CCN(CC6=C(c7ccc(Cl)cc7)CC(C)(C)CC6)CC5)cc4N4CCCOc5nc6[nH]ccc6cc54)cc3[N+](=O)[O-])CC2)C(C)(C)C)cc1 [Example 54] | 0.6 | 49.6 | –
3 | Cc1ncsc1-c1ccc(CNC(=O)[C@@H]2C[C@@H](O)CN2C(=O)[C@@H](NC(=O)CCOCCOCCOCCOCCOCCNc2ccc(S(=O)(=O)NC(=O)c3ccc(N4CCN(CC5=C(c6ccc(Cl)cc6)CC(C)(C)CC5)CC4)cc3N3CCCOc4nc5[nH]ccc5cc43)cc2[N+](=O)[O-])C(C)(C)C)cc1 [Example 55, (2S,4R)-1-[(2S)-2-[1-[(4-[[4-(4-[[2-(4-chlorophenyl)-4,4-dimethylcyclohex-1-en-1-yl]methyl]piperazin-1-yl)-2-[14-oxa-2,4,10-triazatricyclo[7.5.0.0^[3,7]]tetradeca-1(9),2,5,7-tetraen-10-yl]phenyl]formamidosulfonyl]-2-nitrophenyl)amino]-3,6,9,12,15-pentaoxaoctadecan-18-amido]-3,3-dimethylbutanoyl]-4-hydroxy-N-[[4-(4-methyl-1,3-thiazol-5-yl)phenyl]methyl]pyrrolidine-2-carboxamide] | 1.1 | 75 | –
4 | Cc1ncsc1-c1ccc(CNC(=O)[C@@H]2C[C@@H](O)CN2C(=O)[C@@H](NC(=O)CCOCCOCCN2CCN(CCNc3ccc(S(=O)(=O)NC(=O)c4ccc(N5CCN(CC6=C(c7ccc(Cl)cc7)CC(C)(C)CC6)CC5)cc4N4CCCOc5nc6[nH]ccc6cc54)cc3[N+](=O)[O-])CC2)C(C)(C)C)cc1 [Example 56] | 0.4 | 63.7 | –
5 | Cc1ncsc1-c1ccc(CNC(=O)[C@@H]2C[C@@H](O)CN2C(=O)[C@@H](NC(=O)CCOCCOCCOCCOCCNc2ccc(S(=O)(=O)NC(=O)c3ccc(N4CCN(CC5=C(c6ccc(Cl)cc6)CC(C)(C)CC5)CC4)cc3N3CCCOc4nc5[nH]ccc5cc43)cc2[N+](=O)[O-])C(C)(C)C)cc1 [Example 57, (2S,4R)-1-[(2S)-2-[1-[(4-[[4-(4-[[2-(4-chlorophenyl)-4,4-dimethylcyclohex-1-en-1-yl]methyl]piperazin-1-yl)-2-[14-oxa-2,4,10-triazatricyclo[7.5.0.0^[3,7]]tetradeca-1(9),2,5,7-tetraen-10-yl]phenyl]formamidosulfonyl]-2-nitrophenyl)amino]-3,6,9,12-tetraoxapentadecan-15-amido]-3,3-dimethylbutanoyl]-4-hydroxy-N-[[4-(4-methyl-1,3-thiazol-5-yl)phenyl]methyl]pyrrolidine-2-carboxamide] | 0.5 | 68 | –
6 | Cc1ncsc1-c1ccc(CNC(=O)[C@@H]2C[C@@H](O)CN2C(=O)[C@@H](NC(=O)CCOCCN2CCN(CCNc3ccc(S(=O)(=O)NC(=O)c4ccc(N5CCN(CC6=C(c7ccc(Cl)cc7)CC(C)(C)CC6)CC5)cc4N4CCCOc5nc6[nH]ccc6cc54)cc3[N+](=O)[O-])CC2)C(C)(C)C)cc1 [Example 58] | 0.3 | 102 | –
7 | Cc1ncsc1-c1ccc(CNC(=O)[C@@H]2C[C@@H](C)CN2C(=O)[C@@H](NC(=O)CCOCCOCCOCCNc2ccc(S(=O)(=O)NC(=O)c3cc(N4CCN(CC5=C(c6ccc(Cl)cc6)CC(C)(C)CC5)CC4)ccc3N3CCCOc4nc5[nH]ccc5cc43)cc2[N+](=O)[O-])C(C)(C)C)cc1 [Example 59, (2S,4R)-1-[(2S)-2-[3-[2-(2-[2-[(4-[[5-(4-[[2-(4-chlorophenyl)-4,4-dimethylcyclohex-1-en-1-yl]methyl]piperazin-1-yl)-2-[14-oxa-2,4,10-triazatricyclo[7.5.0.0^[3,7]]tetradeca-1(9),2,5,7-tetraen-10-yl]phenyl]formamidosulfonyl]-2-nitrophenyl)amino]ethoxy]ethoxy)ethoxy]propanamido]-3,3-dimethylbutanoyl]-4-methyl-N-[[4-(4-methyl-1,3-thiazol-5-yl)phenyl]methyl]pyrrolidine-2-carboxamide] | 1.1 | 84 | –
8 | CC1(C)CCC(CN2CCN(c3ccc(C(=O)NS(=O)(=O)c4ccc(NCC5CCOCC5)c([N+](=O)[O-])c4)c(N4CCCCOc5nc6[nH]ccc6cc54)c3)CC2)=C(c2ccc(Cl)cc2)C1 [Example 69, 4-(4-[[2-(4-chlorophenyl)-4,4-dimethylcyclohex-1-en-1-yl]methyl]piperazin-1-yl)-N-(3-nitro-4-[[(oxan-4-yl)methyl]amino]benzenesulfonyl)-2-[15-oxa-2,4,10-triazatricyclo[7.6.0.0^[3,7]]pentadeca-1(9),2,5,7-tetraen-10-yl]benzamide] | – | 28.6 | 0.6
9 | Cn1c(=O)c2nc3[nH]ccc3cc2n1-c1cc(N2CCN(CC3=C(c4ccc(Cl)cc4)CC(C)(C)CC3)CC2)ccc1C(=O)NS(=O)(=O)c1ccc(NC[C@H]2COCCO2)c([N+](=O)[O-])c1 [Example 70, 4-(4-[[2-(4-chlorophenyl)-4,4-dimethylcyclohex-1-en-1-yl]methyl]piperazin-1-yl)-N-(4-[[(2S)-1,4-dioxan-2-ylmethyl]amino]-3-nitrobenzenesulfonyl)-2-[11-methyl-12-oxo-2,4,10,11-tetraazatricyclo[7.3.0.0^[3,7]]dodeca-1,3(7),5,8-tetraen-10-yl]benzamide] | 0.1 | 186 | –
10 | CC1(C)CCC(CN2CCN(c3ccc(C(=O)NS(=O)(=O)c4ccc(NC[C@H]5COCCO5)c([N+](=O)[O-])c4)c(-n4c5ccncc5c5nc6[nH]ccc6cc54)c3)CC2)=C(c2ccc(Cl)cc2)C1 [Example 71, 4-(4-[[2-(4-chlorophenyl)-4,4-dimethylcyclohex-1-en-1-yl]methyl]piperazin-1-yl)-N-(4-[[(2S)-1,4-dioxan-2-ylmethyl]amino]-3-nitrobenzenesulfonyl)-2-[4,8,14,16-tetraazatetracyclo[7.7.0.0^[2,7].0[11,15]]hexadeca-1(16),2(7),3,5,9,11(15),12-heptaen-8-yl]benzamide] | 0.6 | 192 | –
11 | CC1(C)CC(c2ccc(Cl)cc2)=C(CN2CCN(c3ccc(C(=O)NS(=O)(=O)c4ccc(NC[C@H]5COCCO5)c([N+](=O)[O-])c4)c(N4CCCOc5nc6[nH]ccc6cc54)c3)CC2)CO1 [Example 72, 4-(4-[[4-(4-chlorophenyl)-6,6-dimethyl-2,5-dihydropyran-3-yl]methyl]piperazin-1-yl)-N-(4-[[(2S)-1,4-dioxan-2-ylmethyl]amino]-3-nitrobenzenesulfonyl)-2-[14-oxa-2,4,10-triazatricyclo[7.5.0.0^[3,7]]tetradeca-1(9),2,5,7-tetraen-10-yl]benzamide] | – | 0.3 | 0.01
12 | CC1(C)CCC(c2ccc(Cl)cc2)=C(CN2CCN(c3ccc(C(=O)NS(=O)(=O)c4ccc(NC[C@H]5COCCO5)c([N+](=O)[O-])c4)c(N4CCCOc5nc6[nH]ccc6cc54)c3)CC2)C1 [Example 73, 4-(4-[[2-(4-chlorophenyl)-5,5-dimethylcyclohex-1-en-1-yl]methyl]piperazin-1-yl)-N-(4-[[(2S)-1,4-dioxan-2-ylmethyl]amino]-3-nitrobenzenesulfonyl)-2-[14-oxa-2,4,10-triazatricyclo[7.5.0.0^[3,7]]tetradeca-1(9),2,5,7-tetraen-10-yl]benzamide] | 0.9 | 3.1 | –
13 | O=C(NS(=O)(=O)c1ccc(NC[C@H]2COCCO2)c([N+](=O)[O-])c1)c1ccc(N2CCN(CC3=C(c4ccc(Cl)cc4)CCCC3)CC2)cc1N1CCCOc2nc3[nH]ccc3cc21 [Example 74, 4-(4-[[2-(4-chlorophenyl)cyclohex-1-en-1-yl]methyl]piperazin-1-yl)-N-(4-[[(2S)-1,4-dioxan-2-ylmethyl]amino]-3-nitrobenzenesulfonyl)-2-[14-oxa-2,4,10-triazatricyclo[7.5.0.0^[3,7]]tetradeca-1(9),2,5,7-tetraen-10-yl]benzamide] | 0.3 | 1.7 | –
